Test results: US11229633B2, “Arimoclomol formulation” (Orphazyme A/S, priority 2014, dated 2022)
Entries after “also recorded” stand apart in the source; their conditions may differ.

Legend:
OATP1B3 = target: T1, OATP1B3 (Homo sapiens, UniProt Q9NPD5); assay: Uptake transporter inhibition assay, OATP1B3; assay type: in vitro ADME; design: expressed in transfected cells; host or cells: CHO (protocol UPT-CHO-OATP1B3-Fluo3; control: parental CHO-K1; 5 mM Na+ butyrate induction); key to maximum inhibition: NIO: No interaction observed; settings: for maximum inhibition: 0.3-300 μM
T1 sequence (Q9NPD5 1-702): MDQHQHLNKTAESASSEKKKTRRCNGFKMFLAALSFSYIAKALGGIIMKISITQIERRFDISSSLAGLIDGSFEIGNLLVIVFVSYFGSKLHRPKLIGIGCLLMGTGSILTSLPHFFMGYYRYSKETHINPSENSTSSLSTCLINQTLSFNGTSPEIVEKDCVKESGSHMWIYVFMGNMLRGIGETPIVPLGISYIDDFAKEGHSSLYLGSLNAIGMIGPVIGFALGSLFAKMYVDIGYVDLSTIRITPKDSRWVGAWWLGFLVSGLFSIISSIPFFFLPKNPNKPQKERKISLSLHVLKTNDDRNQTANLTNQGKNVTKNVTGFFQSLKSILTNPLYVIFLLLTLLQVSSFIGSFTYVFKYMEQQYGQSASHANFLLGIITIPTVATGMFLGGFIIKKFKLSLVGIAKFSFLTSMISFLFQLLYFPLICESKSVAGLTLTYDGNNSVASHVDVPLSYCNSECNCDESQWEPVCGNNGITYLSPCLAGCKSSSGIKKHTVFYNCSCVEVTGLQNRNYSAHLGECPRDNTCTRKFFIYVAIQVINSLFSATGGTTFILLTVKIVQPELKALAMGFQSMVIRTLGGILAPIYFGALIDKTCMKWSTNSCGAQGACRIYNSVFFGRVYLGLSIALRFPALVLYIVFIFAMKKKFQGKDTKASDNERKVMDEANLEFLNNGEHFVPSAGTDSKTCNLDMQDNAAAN
Experimental: (§1) Uptake experiments were performed using CHO, MDCKII, or HEK293 cells stably expressing the respective uptake transporters.
(§2) Cells were cultured at 37±1° C. in an atmosphere of 95:5 air:CO2 and were plated onto standard 96-well tissue culture plates at the cell number described in table 4.
(§3) Before the experiment, the medium was removed and the cells were washed twice with 100 μl of HK buffer at pH 7.4 (prepared from Sigma chemicals, Sigma-Aldrich, St Louis, Mo.). Uptake experiments were carried out at 37±1° C. in 50 μl of HK buffer (pH 7.4) containing the probe substrate and the TA or vehicle control (water).
(§4) After the experiment, cells were washed twice with ice cold, 100 μl of HK buffer and lysed with 50 μl of 0.1 M NaOH (1 mM CaCl2) in 5% SDS in the case of OATP1B3). Fluo-3 transport (OATP1B3) was determined by measuring fluorescence using 485 nm and 520 nm as the excitation and emission wavelengths, respectively. Radiolabelled probe substrate transport was determined by measuring an aliquot (35 μl) from each well for liquid scintillation counting.
(§5) Uptake of the probe substrate in control cells provided background activity values for all data points. Incubation without TA or reference inhibitor (solvent only) provided 100% activity values. A reference inhibitor served as positive control for inhibition.
(§6) The amount of translocated probe substrate was determined for each well in cpm or RFU. Relative activities were calculated from the equation:
(§7) [formula] A: amount of translocated substrate in the presence of TA in transfected cells B: amount of translocated substrate in the presence of TA in control cells C: amount of translocated substrate in the presence of solvent in transfected cells D: amount of translocated substrate in the presence of solvent in control cells Calculation of Fold Accumulation Values
(§8) In uptake transporter inhibition assays, the IC50 (μM) was calculated, where applicable. […]

human OAT3 = target: T2, human OAT3 (Homo sapiens, UniProt Q8TCC7); assay: Uptake transporter inhibition assay, OAT3; assay type: in vitro ADME; design: key to maximum inhibition: NIO: No interaction observed; settings: for maximum inhibition: 0.3-300 μM
T2 construct: expressed in transfected cells; host or cells: MDCKII (protocol UPT-MDCKII-OAT3-E3S; control: parental MDCKII)
T2 sequence (Q8TCC7 1-542): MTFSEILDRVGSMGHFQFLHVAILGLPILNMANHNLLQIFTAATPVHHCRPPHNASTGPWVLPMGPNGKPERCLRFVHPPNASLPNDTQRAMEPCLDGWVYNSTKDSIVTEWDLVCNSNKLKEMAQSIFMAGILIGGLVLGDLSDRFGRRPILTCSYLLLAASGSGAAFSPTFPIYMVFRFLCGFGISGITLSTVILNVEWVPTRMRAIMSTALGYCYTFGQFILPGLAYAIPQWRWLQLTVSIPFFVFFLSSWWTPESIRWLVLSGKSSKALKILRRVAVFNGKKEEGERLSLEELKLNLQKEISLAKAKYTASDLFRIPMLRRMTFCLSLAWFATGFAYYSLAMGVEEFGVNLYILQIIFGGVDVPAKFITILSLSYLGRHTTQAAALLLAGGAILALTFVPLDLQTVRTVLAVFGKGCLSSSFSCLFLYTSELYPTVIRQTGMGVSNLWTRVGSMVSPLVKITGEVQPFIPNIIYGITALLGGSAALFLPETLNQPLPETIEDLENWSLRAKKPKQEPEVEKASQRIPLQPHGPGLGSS
Experimental: as §1, §2, §3, §4, §5, §6, §7, §8

[1] = Stability at conventional extrusion temperature; assay type: physicochemical; settings: 100-200° C.

For `[O-][n+]1cccc(C(Cl)=NOCC(O)CN2CCCCC2)c1` (stereo not shown) [Arimoclomol, N-[2-hydroxy-3-(1-piperidinyl)-propoxy]-pyridine-1-oxide-3-carboximidoyl chloride], the maximum inhibition (OATP1B3; Table 2) was “NIO”, the maximum inhibition (OATP1B3; Table 5) was “NIO” and the “Influence on OATP1B3-mediated probe substrate accumulation (in words)” value (OATP1B3; applied concentrations) was “did not influence; also recorded: not an inhibitor”. For the same compound, the maximum inhibition (human OAT3; Table 2) was “NIO”, the maximum inhibition (human OAT3; Table 5) was “NIO” and the “Influence on OAT3-mediated probe substrate accumulation (in words)” value (human OAT3; applied concentrations) was “did not influence; also recorded: not an inhibitor”. For the same compound, the “Stability at conventional extrusion temperature” value [1] was “not stable”.
